US11365200B2, “ATF3 induction compounds” (TAIPEI MEDICAL UNIVERSITY, priority 2017, dated 2022)

Legend:
[1] = Echocardiography after transverse aortic banding (TAB) or sham surgery; assay type: in vivo, mice; settings: for EF / FS / IVSd / IVSs / LVIDd / LVIDs / LVPWd / LVPWs / Heart Rate: i.p. treatment twice a week, echocardiography, mean; for Heart Rate: in bpm (unit assumed)
Description: For echocardiography, mice were anesthetized with pentobarbital (40 mg/kg body weight, i.p.) and then measurements were taken with ultrasound equipment (ATL Philips IE33, Ultrasound Machine System, CA, U.S.A.) using a 15-MHz probe. The left ventricular posterior wall thickness (LVPW), inter-ventricular septum thickness (IVS), and left ventricular lumen diameter at both end-systolic and end-diastolic phases were measured digitally on the M-mode tracings and averaged for three cardiac cycles. Fractional shortening (FS) and ejection faction (EF) were then calculated.
Male mice (weighing 25-30 g) were anesthetized by intraperitoneal injection of chloral hydrate (125 mg/kg). The TAB procedure was performed according to the description by Hu et al. (Hu P, Zhang D, Swenson L, Chakrabarti G, Abel E D, and Litwin S E (2003) Minimally invasive aortic banding in mice: effects of altered cardiomyocyte insulin signaling during pressure overload. Am J Physiol Heart Circ Physiol 285:H1261-H1269). Echocardiography was performed at week 10 after TAB or sham surgery.
The experimental timeline for TAB and ST32da therapy was as follows. Mice were pre or post treated with intraperitoneal ST32da (0.2 mg/kg) twice a week from 4th to 10th week after TAB procedure. Echocardiographic measurements were performed on mice before (week 4) and after (week 10) ST32da, ST32db, ST32c therapy in both the procedure group and the nonprocedure group. Parameters, including interventricular septum thickness at diastole (IVSd) and systole (IVSs), left ventricular internal diameter at diastole (LVIDd) and systole (LVIDs), left ventricular posterior wall thickness at diastole (LVPWd) and systole (LVPWs), fractional shortening of left ventricle, ejection fraction of left ventricle (EF), and heart rate (HR) are shown.

[2] = Animal model for obesity (45% high fat diet); assay type: in vivo; settings: HFD-fed WT mice
[3] = GTT and ITT assays in HFD-fed mice; assay type: in vivo; settings: HFD-fed WT mice, 0.5 mg/kg/day or 1 mg/kg/day
Description: Mice were fasted overnight for 16 h before receiving an intraperitoneal administration of 1.5 g glucose/kg body weight in saline. Blood samples were collected from the tail vein by tail snipping at 0, 15, 30, 45, 60, and 120 min, and plasma glucose and insulin levels were determined from those samples. An ITT was performed on mice after 1 h of fasting. Animals were intraperitoneally injected with 1.0 U insulin/kg body weight in saline. Blood samples were drawn from the tail vein at 0, 15, 30, 45 and 60 min for the measurement of plasma glucose levels. Plasma glucose levels in blood samples collected from tail veins were determined using a commercially available glucose meter (OneTouch Ultra blood glucose meter, LifeScan, Milpitas, Calif.). After the isolation of plasma from blood samples, insulin levels were determined by ELISA (Mercodia, Winston Salem, N.C.). To evaluate the degree of insulin resistance, values were calculated using the following homeostatic model of assessment of insulin resistance (HOMA-IR) formula: fasting glucose (in mg/dl)×fasting insulin (in mU/ml)/405.)

ATF3 = ATF3 promoter luciferase platform (pGL4-ATF3 stable clones) for screening ATF3 inducers; assay type: cell-based; settings: pGL4-ATF3 transfected 3T3-L1 preadipocytes and H9C2 cardiomyocytes
Source text: The disclosure is directed to chromenone derivatives used as an ATF3 inducer compound and for treating and/or preventing obesity and obesity-related disorders. The compounds of this disclosure are obtained by: (1) transfecting a special DNA sequence of ATF3 (pGL4-ATF3) into 3T3-L1 preadipocytes and H9C2 cardiomyocytes; (2) using the stable clone as a platform for screening of drug for anti-obesity, anti-atherosclerosis, anti-cardiovascular disease and promotion of white-to-brown adipocyte transdifferentiation; and (3) using the platform for special drug screening. […] The invention further finds that these compounds have an inhibitory effect on obesity and obesity-induced diabetes and a facilitatory effect on white-to-brown adipocyte transdifferentiation, thereby increasing the body energy expenditure and suppressing diabetes. In addition, these compounds also can inhibit high blood pressure or hypoxia induced cardiomyopathy to increase heart function.
The invention uses a platform of ATF3 promoter luciferase to select AT3 inducer and confirms that these selected compounds can be used as anti-obesity, anti-diabetes and anti-heart disease drugs in view of the fact that these compounds have an inhibitory effect on obesity and obesity-induced diabetes and inhibition of high blood pressure or hypoxia induced cardiomyopathy, thereby increasing heart function. The platform of ATF3 promoter luciferase is created by transfecting a DNA sequence of ATF3 (pGL4-ATF3) into 3T3-L1 preadipocytes and H9C2 cardiomyocytes and using the stable clones as a platform for screening of drugs for anti-obesity, anti-atherosclerosis, anti-cardiovascular disease and promotion of white-to-brown adipocyte transdifferentiation. […]

[4] = TAB mice, week 4 to 10 after TAB

SMILES | TAB-induced LV dilatation ([1]; TAB mice) | contractility ([1]; TAB mice) | EF [1, 4] | FS [1, 4] | IVSd [1, 4] | IVSs [1, 4] | LVIDd [1, 4] | LVIDs [1, 4] | LVPWd [1, 4] | LVPWs [1, 4] | Heart Rate [1, 4] | EF ([1]; sham mice, week 4 to 10) | FS ([1]; sham mice, week 4 to 10) | IVSd ([1]; sham mice, week 4 to 10) | IVSs ([1]; sham mice, week 4 to 10) | LVIDd ([1]; sham mice, week 4 to 10) | LVIDs ([1]; sham mice, week 4 to 10) | LVPWd ([1]; sham mice, week 4 to 10) | LVPWs ([1]; sham mice, week 4 to 10) | Heart Rate ([1]; sham mice, week 4 to 10) | further results
C[C@@H]1Oc2c(c(=O)oc3c2ccc2ccccc23)[C@H]1C [ST32da, (1R,2S)-1,2-dimethyl-1H-benzo[h]furo[3,2-c]chromen-11(2H)-one] | attenuated TAB-induced LV dilatation | increased contractility | 75.000% | 41.000% | 1.200 mm | 1.600 mm | 3.600 mm | 2.500 mm | 1.000 mm | 1.600 mm | 294.000 | 81.000% | 44.000% | 0.767 mm | 1.400 mm | 3.833 mm | 2.133 mm | 0.800 mm | 1.400 mm | 303.667 | HFD-induced obesity (percent of initial body weight) ([2]; 0.5 mg/kg/day or 1 mg/kg/day i.p., FIG. 5A left): could prevent HFD-induced obesity; adipose depot mass including iWAT, eWAT, mWAT, rWAT and BAT ([2]; 0.5 mg/kg/day or 1 mg/kg/day i.p., FIG. 5B): decreased adipose depot mass; liver weights ([2]; 0.5 mg/kg/day or 1 mg/kg/day i.p., FIG. 5C): did not affect liver weights; glucose tolerance (glucose tolerance test) ([3]; FIG. 5D): enhanced glucose tolerance; insulin sensitivity (insulin tolerance test) ([3]; FIG. 5E): improved inulin sensitivity; ATF3 expression (screening for ATF3 inducers) (ATF3): induction of the above-mentioned ATF3 expression
C[C@@H]1c2c(c3ccc4ccccc4c3oc2=O)O[C@@H]1C [ST32db, (1R,2R)-1,2-dimethyl-1H-benzo[h]furo[3,2-c]chromen-11(2H)-one] | attenuated TAB-induced LV dilatation | increased contractility | 84.750% | 48.250% | 1.050 mm | 1.750 mm | 3.600 mm | 1.850 mm | 1.050 mm | 1.700 mm | 301.000 | 81.667% | 44.667% | 0.800 mm | 1.533 mm | 4.067 mm | 2.233 mm | 0.800 mm | 1.433 mm | 318.500 | HFD-induced obesity (body weight) ([2]; 1 or 10 mg/kg/day, FIG. 6A): could prevent HFD-induced obesity; ATF3 expression (screening for ATF3 inducers) (ATF3): induction of the above-mentioned ATF3 expression
CC1Cc2c(c3ccc4ccccc4c3oc2=O)O1 (stereo not shown) [ST32c, 2-methyl-1H-benzo[h]furo[3,2-c]chromen-11(2H)-one] | attenuated TAB-induced LV dilatation | increased contractility | 86.500% | 54.500% | 1.350 mm | 1.950 mm | 3.350 mm | 1.700 mm | 1.350 mm | 2.000 mm | 340.000 | 79.000% | 41.333% | 0.800 mm | 1.367 mm | 3.733 mm | 2.200 mm | 0.800 mm | 1.333 mm | 318.667 | HFD-induced obesity (body weight) ([2]; 0.5 mg/kg/day, FIG. 7): could prevent HFD-induced obesity; ATF3 expression (screening for ATF3 inducers) (ATF3): induction of the above-mentioned ATF3 expression
